# Target: Neuronal acetylcholine receptor
# Test: Ability to displace radioligand [3H](-)-cytisine from Nicotinic acetylcholine receptor in rat brain membrane.
# Assay type: cell membranes
row,SMILES,Ki
1,C[C@@H](N)COc1ccc(Cl)nc1,5.3 nM
2,C[C@@H](N)COc1ccc(F)nc1,6.6 nM
3,N[C@H](COc1cnc(Cl)c(/C=C/c2ccncc2)c1)Cc1ccccc1,9.9 nM
4,NCCOc1cncc(Cl)c1,140 nM
5,CC[C@H](N)COc1ccc(Cl)nc1,15 nM
6,CN[C@H](C)COc1ccc(F)nc1,11 nM
7,C[C@@H](N)COc1cnc(Cl)c(Br)c1,1.5 nM
8,CN[C@@H](C)COc1ccc(Cl)nc1,41 nM
9,C[C@@H](N)COc1cnc(Cl)c(/C=C/c2ccncc2)c1,0.081 nM
10,Cc1ccc(OCCN(C)C)cn1,140 nM
11,CNCCOc1cccnc1,17 nM
12,C[C@@H](COc1cnc(Cl)c(/C=C/c2ccncc2)c1)N(C)C,0.37 nM
13,CC[C@@H](COc1cnc(Cl)c(/C=C/c2ccncc2)c1)N(C)C,3.6 nM
14,CC[C@H](N)COc1cnc(Cl)c(/C=C/c2ccncc2)c1,0.18 nM
15,CC[C@H](N)COc1ccc(F)nc1,39 nM
16,C[C@@H](COc1cnc(Cl)c(Br)c1)N(C)C,31 nM
17,C[C@H](COc1ccc(F)nc1)N(C)C,70 nM
18,CN[C@H](COc1cccnc1)Cc1ccccc1,690 nM
19,CC[C@@H](COc1ccc(F)nc1)NC,220 nM
20,CN(C)[C@H](COc1cnc(Cl)c(/C=C/c2ccncc2)c1)Cc1ccccc1,4.6 nM

row,SMILES,Ki
1,CNCCOc1cnc(Cl)c(Cl)c1,13 nM
2,CN(C)CCOc1cncc(Cl)c1,74 nM
3,CNCCOc1ccc(Cl)nc1,22 nM
4,CN[C@H](COc1cnc(Cl)c(/C=C/c2ccncc2)c1)Cc1ccccc1,2.6 nM
5,C[C@@H](COc1ccc(F)nc1)N(C)C,100 nM
6,C[C@H](N)COc1ccc(F)nc1,8.7 nM
7,CN[C@@H](C)COc1cnc(Cl)c(Br)c1,11 nM
8,CNCCOc1cnc(Cl)c(Br)c1,14.3 nM
9,CN[C@@H](C)COc1ccc(F)nc1,69 nM
10,Cc1cc(OC[C@H](C)N)cnc1Cl,0.52 nM
11,Cc1cc(OC[C@@H](C)N(C)C)cnc1Cl,7.2 nM
12,CN[C@H](COc1cnc(Cl)c(Br)c1)Cc1ccccc1,85 nM
13,CC[C@H](N)COc1cnc(Cl)c(Br)c1,15 nM
14,COc1ccc(OCCN(C)C)cn1,406 nM
15,CN(C)CCOc1cncc([N+](=O)[O-])c1,260 nM
16,CN[C@@H](C)COc1cnc(Cl)c(C)c1,5.5 nM
17,CN[C@H](C)COc1ccc(Cl)nc1,5.9 nM
18,Cc1cc(OC[C@@H](C)N)cnc1Cl,0.98 nM
19,CNCCOc1cncc([N+](=O)[O-])c1,560 nM
20,CN(C)CCOc1cncc(Br)c1,50 nM

row,SMILES,Ki
1,Cc1cc(OC[C@H](C)N(C)C)cnc1Cl,9.6 nM
2,CN[C@H](C)COc1cnc(Cl)c(C)c1,0.57 nM
3,CN[C@H](C)COc1cnc(Cl)c(Br)c1,1.5 nM
4,C[C@H](COc1cnc(Cl)c(Br)c1)N(C)C,12 nM
5,N[C@H](COc1cnc(Cl)c(Br)c1)Cc1ccccc1,100 nM
6,CN(C)CCOc1cncc(C(F)(F)F)c1,250 nM
7,CN(C)[C@@H](CCCl)COc1cncc(C(F)(F)F)c1,5.5 nM
8,CNCCOc1cncc(Cl)c1,37 nM
9,C[C@H](COc1cnc(Cl)c(/C=C/c2ccncc2)c1)N(C)C,0.1 nM
10,CNCCOc1ccc(OC)nc1,620 nM
11,CN(C)CCOc1ccc(Cl)nc1,79 nM
12,CN(C)CCOc1cnc(Cl)c(Cl)c1,16 nM
13,CNCCOc1ccc(C)nc1,43 nM
14,CN(C)CCOc1cnc(Cl)c(Br)c1,7.1 nM
15,CN[C@H](C)COc1cnc(Cl)c(/C=C/c2ccncc2)c1,0.077 nM
16,C[C@H](N)COc1cnc(Cl)c(/C=C/c2ccncc2)c1,0.076 nM
17,CN(C)[C@H](COc1cnc(Cl)c(Br)c1)Cc1ccccc1,320 nM
18,CNCCOc1cncc(N)c1,27 nM
19,C[C@H](N)COc1ccc(Cl)nc1,4.5 nM
20,C[C@H](N)COc1cnc(Cl)c(Br)c1,1.5 nM

# Target: not listed separately
# Test: Ability to displace radioligand [3H](-)-cytisine from Neuronal nicotinic receptor in rat brain membrane was determined.
# Assay type: cell membranes
row,SMILES,Ki
1,Clc1ccc(OC[C@H]2CCN2)cn1 [TEBANICLINE],0.05 nM

# From ChEMBL document CHEMBL1135851, “Synthesis and biological evaluation of pyridine-modified analogues of 3-(2-aminoethoxy)pyridine as novel nicotinic receptor ligands” (Bioorg Med Chem Lett, 2002)
